Data published in PMC2778250 (Journal of medicinal chemistry, 2009).

What was measured:
[1] = target: LcrF (Yersinia pestis, UniProt P28808); assay: biochemical; format: binding; conditions: for IC50: LcrF IC50
[2] = system: E. coli; assay: In vitro antimicrobial susceptibility test; format: cell-based
[3] = system: S. aureus; assay: In vitro antimicrobial susceptibility test; format: cell-based
[4] = system: pET-15b supercoiled plasmid DNA; assay: In vitro DNA binding assay; conditions: 100 μg/mL; agarose gel electrophoresis
[5] = system: uninfected J774A.1 murine macrophages; conditions: 50μg/mL
[6] = target: T1, SlyA (Salmonella typhimurium, UniProt P40676); assay: biochemical; format: binding, Salmonella spp.
T1 sequence (P40676 1-144): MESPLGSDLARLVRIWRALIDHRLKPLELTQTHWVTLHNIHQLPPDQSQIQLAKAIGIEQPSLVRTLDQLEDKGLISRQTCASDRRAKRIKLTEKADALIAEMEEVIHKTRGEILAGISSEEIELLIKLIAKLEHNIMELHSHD

[7] = system: Y. pseudotuberculosis; format: cell-based
[8] = system: T3SS-dependent Y. pseudotuberculosis killing of macrophages

Chain of LcrF (P28808 whole entry, looked up): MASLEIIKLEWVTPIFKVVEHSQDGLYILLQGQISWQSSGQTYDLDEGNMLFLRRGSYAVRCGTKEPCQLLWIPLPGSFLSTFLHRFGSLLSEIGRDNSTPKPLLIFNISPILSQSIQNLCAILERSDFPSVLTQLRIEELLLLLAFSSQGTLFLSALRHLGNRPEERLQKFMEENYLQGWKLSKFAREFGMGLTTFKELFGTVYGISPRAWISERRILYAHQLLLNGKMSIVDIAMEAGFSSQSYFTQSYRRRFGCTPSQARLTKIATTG

## O=C(NCc1ccc(-c2nc3ccc([N+](=O)[O-])cc3n2O)cc1)c1ccc(F)cc1 [Compound 11, 4-Fluoro-N-[4-(1-hydroxy-6-nitro-1H-benzoimidazol-2-yl)-benzyl]-benzamide]
[1]
  inhibitory activity in LcrF-DNA binding assay (in words): no measurable activity

## O=C(Cc1ccc(F)cc1)Nc1ccc(-c2nc3ccc([N+](=O)[O-])cc3n2O)cc1 [Compound 12, 2-(4-Fluoro-phenyl)-N-[4-(1-hydroxy-6-nitro-1H-benzoimidazol-2-yl)-phenyl]-acetamide]
[1]
  inhibitory activity in LcrF-DNA binding assay (in words): no measurable activity

## O=C(CCc1ccc(F)cc1)Nc1ccc(-c2nc3ccc([N+](=O)[O-])cc3n2O)cc1 [Compound 13, 3-(4-Fluoro-phenyl)-N-[4-(1-hydroxy-6-nitro-1H-benzoimidazol-2-yl)-phenyl]-propionamide]
[1]
  inhibitory activity in LcrF-DNA binding assay (in words): no measurable activity

## O=C(/C=C/c1ccc(F)cc1)Nc1ccc(-c2nc3ccc([N+](=O)[O-])cc3n2O)cc1 [Compound 14, (E)-3-(4-Fluoro-phenyl)-N-[4-(1-hydroxy-6-nitro-1H-benzoimidazol-2-yl)-phenyl]-acrylamide]
[2]
  antibacterial activity (in words): no measurable antibacterial activity
[3]
  antibacterial activity (in words): no measurable antibacterial activity
[4]
  non-specific DNA binding (effect on plasmid migration): non-DNA binding
[5]
  intrinsic toxicity to uninfected macrophages: non-cytotoxic
[6]
  IC50: > 53.8 µM
[7]
  antibacterial activity (in words): no measurable antibacterial activity
[1]
  IC50: ≤ 10 µM

## N#Cc1ccc(/C=C/C(=O)Nc2ccc(-c3nc4ccc([N+](=O)[O-])cc4n3O)cc2)cc1 [Compound 19]
[8]
  inhibition of Y. pseudotuberculosis cytotoxicity in whole cell assay (in words): strongly inhibited cytotoxicity

## Cc1ccc(/C=C/C(=O)Nc2ccc(-c3nc4ccc([N+](=O)[O-])cc4n3O)cc2)cc1 [Compound 20, (E)-N-[4-(1-Hydroxy-6-nitro-1H-benzoimidazol-2-yl)-phenyl]-3-p-tolyl-acrylamide]
[8]
  inhibition of Y. pseudotuberculosis cytotoxicity in whole cell assay (in words): relatively inactive

## COc1ccc(/C=C/C(=O)Nc2ccc(-c3nc4ccc([N+](=O)[O-])cc4n3O)cc2)cc1 [Compound 22, (E)-N-[4-(1-Hydroxy-6-nitro-1H-benzoimidazol-2-yl)-phenyl]-3-(4-methoxy-phenyl)-acrylamide]
[2]
  antibacterial activity (in words): no measurable antibacterial activity
[3]
  antibacterial activity (in words): no measurable antibacterial activity
[4]
  non-specific DNA binding (effect on plasmid migration): non-DNA binding
[5]
  intrinsic toxicity to uninfected macrophages: non-cytotoxic
[6]
  IC50: > 55.2 µM
[7]
  antibacterial activity (in words): no measurable antibacterial activity
[1]
  IC50: ≤ 10 µM

## COc1ccc(/C=C/C(=O)Nc2ccc(-c3nc4ccc([N+](=O)[O-])cc4n3O)cc2)c(OC)c1 [Compound 24, (E)-3-(2,4-Dimethoxy-phenyl)-N-[4-(1-hydroxy-6-nitro-1H-benzoimidazol-2-yl)-phenyl]-acrylamide]
[1]
  inhibitory activity in LcrF-DNA binding assay (in words): loss of activity

## CC(C)c1ccc(/C=C/C(=O)Nc2ccc(-c3nc4ccc([N+](=O)[O-])cc4n3O)cc2)cc1 [Compound 25, (E)-N-[4-(1-Hydroxy-6-nitro-1H-benzoimidazol-2-yl)-phenyl]-3-(4-isopropyl-phenyl)-acrylamide]
[1]
  inhibitory activity in LcrF-DNA binding assay (in words): loss of activity

## O=C(/C=C/c1ccc(-n2cnnc2)cc1)Nc1ccc(-c2nc3ccc([N+](=O)[O-])cc3n2O)cc1 [Compound 27]
[1]
  inhibitory activity in LcrF-DNA binding assay (in words): loss of activity

## O=C(/C=C/c1ccc(-c2c[nH]cn2)cc1)Nc1ccc(-c2nc3ccc([N+](=O)[O-])cc3n2O)cc1 [Compound 28]
[1]
  inhibitory activity in LcrF-DNA binding assay (in words): loss of activity

## O=C(/C=C/c1ccc(F)cc1)Nc1ccc(-c2nc3ccc([N+](=O)[O-])cc3n2O)nc1 [Compound 31, (E)-3-(4-Fluoro-phenyl)-N-[6-(1-hydroxy-6-nitro-1H-benzoimidazol-2-yl)-pyridin-3-yl]-acrylamide]
[8]
  inhibition of Y. pseudotuberculosis cytotoxicity in whole cell assay (in words): devoid of any measurable activity

## Cc1cc2nc(-c3ccc(NC(=O)/C=C/c4ccc(F)cc4)cc3)n(O)c2cc1[N+](=O)[O-] [Compound 36, (E)-3-(4-Fluoro-phenyl)-N-[4-(1-hydroxy-5-methyl-6-nitro-1H-benzoimidazol-2-yl)-phenyl]-acrylamide]
[2]
  antibacterial activity (in words): no measurable antibacterial activity
[3]
  antibacterial activity (in words): no measurable antibacterial activity
[4]
  non-specific DNA binding (effect on plasmid migration): non-DNA binding
[5]
  intrinsic toxicity to uninfected macrophages: non-cytotoxic
[6]
  IC50: > 52 µM
[7]
  antibacterial activity (in words): no measurable antibacterial activity
[1]
  IC50: ≤ 10 µM

## CN(C)CCN(C)c1cc2nc(-c3ccc(NC(=O)/C=C/c4ccc(F)cc4)cc3)n(O)c2cc1[N+](=O)[O-] [Compound 40]
[4]
  non-specific DNA binding (effect on plasmid migration): non-specific binding to DNA

## CCOc1ccc(-c2nc3ccc(-c4nc5ccc(N6CCN(C)CC6)cc5[nH]4)cc3[nH]2)cc1 [Hoechst 33342, reference compound]
[4]
  non-specific DNA binding (effect on plasmid migration): faint smear on the gel
